Patent US6054474A, “Heterocyclic compounds for the treatment of pain and use thereof” (Biochem Pharma, Inc., priority 1995, dated 2000)

Key:
mice [1] = assay: Phenylquinone (PBQ) Writhing Assay; assay type: in vivo
Description: (§1) Antinociceptive activity of compounds of the invention was determined in vivo in a PBQ writhing model and in the hot plate test in rodents. Inhibition of PBQ (phenyl-.rho.-benzoquinone) induced writhing in mice is an assessment of both central and peripherally-mediated analgesia. For experimental protocol see Sigmund et al., Proc. Soc. Ex. Biol. Med., 95, p. 729 (1957) which is incorporated herein by reference. Centrally-mediated analgesia was determined by the inhibition of a hot plate response in mice. For experimental protocol see G. Woolfe and A. Macdonald, J. Pharmacol. Exp. Ther., 80, p. 300 ([…]) which is incorporated herein by reference. Assays measuring opioid receptor binding affinities for μ, δ and κ receptors as well as GPI and MVD assays were determined through experimental protocol set out in Schiller et al., Biophys. Res. Commun., 85, p. 1322 (1975); Rothman et al, Peptides, Vol 11, pp 311-331, 1990; Kaffa et al, Peptides 15(3), 401-404, 1994; Fowler et al, Neurochem. Int 24(5), 401-426, 1994; and Leslie F., Pharmacological Review 39(3), 197-249, 1987 incorporated herein by reference.
Phenylquinone Writhing Assay
The test was performed using CD #1 male mice (Charles River) weighing between 19 and 25 g. Animals were maintained in constant conditions of light, temperature and humidity. The animals were acclimatized for three days prior to experimentation. […]

mice [2] = assay: Hot Plate Assay in mice; assay type: in vivo
Description: as §1
For this test, CD #1 male mice (Charles River) weighing between 20-25 grams were used. The mice were weighed, identified, and randomized into groups of 10.
The mice were usually treated by subcutaneous injection of the compound (or the standard or vehicle) or by oral gavage.
The mice were evaluated individually for a latency reaction time on the hot plate. The temperature of the hot plate (Sorel, model DS37) was set at 55° C. […] The reaction time was recorded when one of these signs was noted. The cut off for latency response was 15 seconds so as to prevent damage to the paw tissue. […] The time intervals are typically 30, 60 or 120 minutes (or other).
For each time reading, the average reaction time of the control group was multiplied by 1.5. The reaction time of each treated animal was compared to the "control average×1.5".

## CC12CCCCSC(Cc3ccc(O)cc31)C2N (centres unmarked) [compound #9, 5,6,7,8,9,11,12-heptahydro-3-hydroxy-5-methyl-10-thia-5,11 methanobenzocyclodecen-13-amine]
Mice [1]; oral administration one hour prior to PBQ (FIG. 2)
  inhibition of the writhing response (PBQ): dose-dependent inhibition
Mice [1]; s.c. administration twenty minutes prior to PBQ (FIG. 3)
  inhibition of the writhing response (PBQ): dose-dependent inhibition
Mice [2]; 2.5 mg/kg, subcutaneous, after 15 minutes (FIG. 1)
  latency response time: almost maximum
Mice [2]; 5 mg/kg, subcutaneous (FIG. 1), control approximately 7 seconds
  reaction time: about 19 seconds
Mice [2]; subcutaneous (FIG. 1)
  latency response to radiant heat, dose dependence: dose dependent latency response
